{"source": "paper PMC7832312", "about": "“Enhancing the Physiochemical Properties of Puerarin via L-Proline Co-Crystallization: Synthesis, Characterization, and Dissolution Studies of Two Phases of Pharmaceutical Co-Crystals” (International Journal of Molecular Sciences, 2021)", "key": {"CT-26 cancer cell lines": {"test_system": "CT-26 cancer cell lines", "assay": "Cytotoxicity evaluation by MTT assay, CT-26", "type": "cell-based, murine", "details": "CT-26, culturing 24 h", "protocol": "(§1) CT-26 and HEK-293 cell line was purchased from American Type Culture Collection (Manassas, VA, USA). The cell lines were cultured in RPMI 1640 (for CT-26) or DMEM (for HEK-293) containing 10% fetal bovine serum (FBS, Zhejiang Tianhang Biotechnology Co. Ltd., Hangzhou, China) and 1% penicillin/streptomycin (Zhejiang Tianhang Biotechnology Co. Ltd., Hangzhou, China). Cells grew as a monolayer and were detached upon confluence using trypsin (0.5% w/v in PBS, Zhejiang Tianhang Biotechnology Co. Ltd., Hangzhou, China). The cells were harvested from the cell culture medium by incubating in trypsin solution for 3 min. The cells were centrifuged, and the supernatant discarded. A 3 mL portion of serum-supplemented cell culture medium was added to neutralize any residual trypsin. The cells were re-suspended in serum-supplemented RPMI 1640 (for CT-26) or DMEM (for HEK-293) at a concentration of 5 × 10^4 cells per 1 mL. Cells were cultured at 37 °C and 5% CO2 for MTT studies.\n(§2) The CT-26 or HEK-293 cells were seeded at a density of 1 × 10^4 cells per well in 100 µL of complete RPMI 1640 (CT-26) or DMEM (for HEK-293), and cultured for 16 h for attachment. The culture medium was then replaced by a serum-free medium containing various concentrations of pristine PUE, I, and II. […] After incubating the cells at 37 °C for 4 h, the MTT solution was removed and DMSO (100 μL) added to dissolve the formazan crystals formed, and the microplates were agitated for 5 min at a medium rate before the spectrophotometric measurement at a wavelength of 570 nm on a microplate reader. […] The relative cell viability (%) related to control cells was calculated by the formula below: V%=[A]experimental−[A]blank/[A]control−[A]blank×100% where V% is the percentage of cell viability, [A]experimental is the absorbance of the wells culturing the treated cells, [A]blank is the absorbance of the blank, and [A]control is the absorbance of the wells culturing untreated cells."}, "HEK-293 cell lines": {"test_system": "HEK-293 cell lines", "assay": "Cytotoxicity evaluation by MTT assay, HEK-293", "type": "cell-based, human", "details": "HEK-293, culturing 24 h", "protocol": "as §1, §2"}, "[1]": {"details": "cited from earlier work"}, "[2]": {"assay": "Dissolution rate measurement (UV, 250 mL medium, 150 RPM, 2 h, 37 °C)", "type": "physicochemical", "details": "37 °C", "protocol": "The solubility and dissolution studies of pure PUE, I, and II were measured using a Thermo Scientific Evolution 300 UV spectrometer in deionized water at pH 7.0, gastrointestinal tract at pH 1.2, and phosphate buffer at pH 6.8 solution at 37 °C. The concentration was calculated utilizing a standard curve, which was made by measuring the absorbance of different concentrations at their λmax. A superfluity sum of the sample was added to 10 mL of H2O medium, pH 1.2 and pH 6.8 phosphate, respectively.\n(§3) The oversaturated solution was stirred at 500 RPM by magnetic stirring at 37 °C for 24 h and the suspension was filtered through Whatman’s […] syringe channel, diluted sufficiently and the absorbance was measured at their λmax. For the dissolution rate, the sample was specifically poured into 250 mL pH 7.0 water, pH 1.2 gastrointestinal tract, and pH 6.8 phosphates medium and then stirred at 150 RPM for 2h at 37 °C. Each solution was measured by the absorbance at λmax. At customary interims, the solution was replenished with 3 mL of the respective blank solution to maintain an overall steady volume."}, "[3]": {"assay": "Solubility measurement (UV, oversaturated solution stirred 24 h at 37 °C)", "type": "physicochemical", "details": "thermodynamic from solid, average of three replicates", "protocol": "The concentration was calculated utilizing a standard curve, which was made by measuring the absorbance of different concentrations at their λmax. A superfluity sum of the sample was added to 10 mL of H2O medium, pH 1.2 and pH 6.8 phosphate, respectively.\nas §3"}}, "data": [{"compound": "O=c1c(-c2ccc(O)cc2)coc2c([C@@H]3O[C@H](CO)[C@@H](O)[C@H](O)[C@H]3O)c(O)ccc12", "note": "[PUE, Puerarin]", "values": [{"measurement": "cytotoxicity (MTT cell viability)", "setting": "CT-26 cancer cell lines", "value": "negligible cytotoxicity"}, {"measurement": "cytotoxicity (MTT cell viability)", "setting": "HEK-293 cell lines", "value": "negligible cytotoxicity"}, {"measurement": "elimination half-life", "setting": "[1]", "value": "short"}, {"measurement": "oral bioavailability", "setting": "[1]", "value": "about 7%"}, {"measurement": "Time-dependent dissolution rate", "setting": "[2]; Water, 5 min", "value": 0.062, "unit": "mg/mL"}, {"measurement": "Time-dependent dissolution rate", "setting": "[2]; Water, 10 min", "value": 0.109, "unit": "mg/mL"}, {"measurement": "Time-dependent dissolution rate", "setting": "[2]; Water, 15 min", "value": 0.190, "unit": "mg/mL"}, {"measurement": "Time-dependent dissolution rate", "setting": "[2]; Water, 20 min", "value": 0.250, "unit": "mg/mL"}, {"measurement": "Time-dependent dissolution rate", "setting": "[2]; Water, 25 min", "value": 0.294, "unit": "mg/mL"}, {"measurement": "Time-dependent dissolution rate", "setting": "[2]; Water, 30 min", "value": 0.506, "unit": "mg/mL"}, {"measurement": "Time-dependent dissolution rate", "setting": "[2]; Water, 40 min", "value": 0.611, "unit": "mg/mL"}, {"measurement": "Time-dependent dissolution rate", "setting": "[2]; Water, 50 min", "value": 0.692, "unit": "mg/mL"}, {"measurement": "Time-dependent dissolution rate", "setting": "[2]; Water, 60 min", "value": 0.821, "unit": "mg/mL"}, {"measurement": "Time-dependent dissolution rate", "setting": "[2]; Water, 80 min", "value": 0.896, "unit": "mg/mL"}, {"measurement": "Time-dependent dissolution rate", "setting": "[2]; Water, 100 min", "value": 0.935, "unit": "mg/mL"}, {"measurement": "Time-dependent dissolution rate", "setting": "[2]; Water, 120 min", "value": 1.031, "unit": "mg/mL"}, {"measurement": "Time-dependent dissolution rate", "setting": "[2]; pH 1.2, 5 min", "value": 0.008, "unit": "mg/mL"}, {"measurement": "Time-dependent dissolution rate", "setting": "[2]; pH 1.2, 10 min", "value": 0.019, "unit": "mg/mL"}, {"measurement": "Time-dependent dissolution rate", "setting": "[2]; pH 1.2, 15 min", "value": 0.023, "unit": "mg/mL"}, {"measurement": "Time-dependent dissolution rate", "setting": "[2]; pH 1.2, 20 min", "value": 0.030, "unit": "mg/mL"}, {"measurement": "Time-dependent dissolution rate", "setting": "[2]; pH 1.2, 25 min", "value": 0.035, "unit": "mg/mL"}, {"measurement": "Time-dependent dissolution rate", "setting": "[2]; pH 1.2, 30 min", "value": 0.043, "unit": "mg/mL"}, {"measurement": "Time-dependent dissolution rate", "setting": "[2]; pH 1.2, 40 min", "value": 0.163, "unit": "mg/mL"}, {"measurement": "Time-dependent dissolution rate", "setting": "[2]; pH 1.2, 50 min", "value": 0.354, "unit": "mg/mL"}, {"measurement": "Time-dependent dissolution rate", "setting": "[2]; pH 1.2, 60 min", "value": 0.394, "unit": "mg/mL"}, {"measurement": "Time-dependent dissolution rate", "setting": "[2]; pH 1.2, 80 min", "value": 0.435, "unit": "mg/mL"}, {"measurement": "Time-dependent dissolution rate", "setting": "[2]; pH 1.2, 100 min", "value": 0.568, "unit": "mg/mL"}, {"measurement": "Time-dependent dissolution rate", "setting": "[2]; pH 1.2, 120 min", "value": 0.685, "unit": "mg/mL"}, {"measurement": "Time-dependent dissolution rate", "setting": "[2]; pH 6.8, 5 min", "value": 0.078, "unit": "mg/mL"}, {"measurement": "Time-dependent dissolution rate", "setting": "[2]; pH 6.8, 10 min", "value": 0.110, "unit": "mg/mL"}, {"measurement": "Time-dependent dissolution rate", "setting": "[2]; pH 6.8, 15 min", "value": 0.168, "unit": "mg/mL"}, {"measurement": "Time-dependent dissolution rate", "setting": "[2]; pH 6.8, 20 min", "value": 0.244, "unit": "mg/mL"}, {"measurement": "Time-dependent dissolution rate", "setting": "[2]; pH 6.8, 25 min", "value": 0.274, "unit": "mg/mL"}, {"measurement": "Time-dependent dissolution rate", "setting": "[2]; pH 6.8, 30 min", "value": 0.347, "unit": "mg/mL"}, {"measurement": "Time-dependent dissolution rate", "setting": "[2]; pH 6.8, 40 min", "value": 0.415, "unit": "mg/mL"}, {"measurement": "Time-dependent dissolution rate", "setting": "[2]; pH 6.8, 50 min", "value": 0.444, "unit": "mg/mL"}, {"measurement": "Time-dependent dissolution rate", "setting": "[2]; pH 6.8, 60 min", "value": 0.504, "unit": "mg/mL"}, {"measurement": "Time-dependent dissolution rate", "setting": "[2]; pH 6.8, 80 min", "value": 0.560, "unit": "mg/mL"}, {"measurement": "Time-dependent dissolution rate", "setting": "[2]; pH 6.8, 100 min", "value": 0.641, "unit": "mg/mL"}, {"measurement": "Time-dependent dissolution rate", "setting": "[2]; pH 6.8, 120 min", "value": 0.785, "unit": "mg/mL"}, {"measurement": "solubility at 24 h", "setting": "[3]; aqueous buffer, phosphate buffer at pH 6.8, 37 °C", "value": 2490, "unit": "µg/mL"}, {"measurement": "solubility at 24 h", "setting": "[3]; deionized water, Distilled Water (pH 7.0), 37 °C", "value": 2530, "unit": "µg/mL"}, {"measurement": "solubility at 24 h", "setting": "[3]; gastrointestinal tract medium pH 1.2, simulated gastric fluid, gastrointestinal tract at pH 1.2, 37 °C", "value": 1510, "unit": "µg/mL"}]}]}
